Columns and labels:
[1] = target: Integrin alpha-IIb/beta-3 (Homo sapiens, UniProt P05106+P08514); assay: In vitro activity to block the binding of fibrinogen to purified human fibrinogen receptor.; assay type: protein-complex assay
[2] = species: Homo sapiens; assay: In vitro ability to inhibit aggregation of ADP stimulated human platelets using PRP assay.; assay type: functional
[3] = Oral bioavailability in rat (Sprague-Dawley) (dose 1 mg/kg p.o.); assay type: ADME, organism-based; details: in vivo
[4] = Plasma half life was reported after a intravenous dose of 1 mg/kg in Dawley rat; assay type: ADME, organism-based; parameters: dose 1 mg/kg, route intravenous; details: Sprague-Dawley

Chain of Integrin alpha-IIb/beta-3 (P05106 27-788 limits assumed): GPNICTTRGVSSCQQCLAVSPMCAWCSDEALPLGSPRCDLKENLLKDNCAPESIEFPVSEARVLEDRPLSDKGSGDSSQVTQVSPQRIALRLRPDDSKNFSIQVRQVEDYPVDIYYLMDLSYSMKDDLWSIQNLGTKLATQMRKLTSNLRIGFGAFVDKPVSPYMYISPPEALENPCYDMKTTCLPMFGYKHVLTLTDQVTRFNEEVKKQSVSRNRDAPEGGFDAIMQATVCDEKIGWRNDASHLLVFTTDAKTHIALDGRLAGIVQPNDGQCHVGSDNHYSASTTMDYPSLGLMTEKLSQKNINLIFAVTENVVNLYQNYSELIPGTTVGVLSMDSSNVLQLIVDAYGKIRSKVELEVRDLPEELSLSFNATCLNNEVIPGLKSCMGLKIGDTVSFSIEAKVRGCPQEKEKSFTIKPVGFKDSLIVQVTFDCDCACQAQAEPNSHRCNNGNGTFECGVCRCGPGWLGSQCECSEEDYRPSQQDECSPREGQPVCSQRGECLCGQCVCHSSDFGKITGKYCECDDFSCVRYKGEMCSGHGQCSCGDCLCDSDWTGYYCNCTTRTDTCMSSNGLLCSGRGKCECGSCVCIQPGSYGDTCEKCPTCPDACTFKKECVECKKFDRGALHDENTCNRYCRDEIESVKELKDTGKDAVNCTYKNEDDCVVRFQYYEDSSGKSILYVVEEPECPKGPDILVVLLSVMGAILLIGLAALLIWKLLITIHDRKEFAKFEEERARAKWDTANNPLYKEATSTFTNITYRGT
Chain of Integrin alpha-IIb/beta-3 (P08514 32-887 limits assumed): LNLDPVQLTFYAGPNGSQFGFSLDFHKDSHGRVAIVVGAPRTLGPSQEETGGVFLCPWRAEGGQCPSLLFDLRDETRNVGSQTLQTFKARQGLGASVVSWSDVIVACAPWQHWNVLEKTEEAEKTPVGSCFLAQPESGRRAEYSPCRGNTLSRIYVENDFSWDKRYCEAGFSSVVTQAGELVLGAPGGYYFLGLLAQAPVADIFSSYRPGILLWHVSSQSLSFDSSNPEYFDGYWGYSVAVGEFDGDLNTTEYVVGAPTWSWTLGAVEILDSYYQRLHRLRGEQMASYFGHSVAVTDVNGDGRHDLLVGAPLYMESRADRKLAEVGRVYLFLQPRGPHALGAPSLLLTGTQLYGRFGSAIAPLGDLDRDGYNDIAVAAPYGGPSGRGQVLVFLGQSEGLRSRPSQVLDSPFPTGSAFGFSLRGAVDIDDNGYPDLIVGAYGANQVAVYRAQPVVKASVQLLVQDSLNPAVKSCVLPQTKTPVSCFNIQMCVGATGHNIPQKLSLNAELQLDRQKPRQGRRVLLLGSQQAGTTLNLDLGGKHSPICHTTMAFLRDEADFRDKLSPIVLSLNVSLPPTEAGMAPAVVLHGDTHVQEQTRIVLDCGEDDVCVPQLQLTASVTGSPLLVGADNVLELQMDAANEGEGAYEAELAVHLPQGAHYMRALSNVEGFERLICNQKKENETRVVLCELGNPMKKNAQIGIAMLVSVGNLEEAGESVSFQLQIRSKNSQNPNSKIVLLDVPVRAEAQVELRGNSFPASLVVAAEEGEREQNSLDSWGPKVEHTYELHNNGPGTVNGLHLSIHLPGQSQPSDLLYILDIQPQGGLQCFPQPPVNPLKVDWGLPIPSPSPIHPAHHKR
Chain of Integrin alpha-IIb/beta-3 (P08514 891-1039 limits assumed): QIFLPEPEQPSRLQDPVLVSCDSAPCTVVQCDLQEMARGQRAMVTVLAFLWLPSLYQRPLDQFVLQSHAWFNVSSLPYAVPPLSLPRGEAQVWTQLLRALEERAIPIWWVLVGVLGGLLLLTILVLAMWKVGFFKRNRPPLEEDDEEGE

SMILES | IC50 [1] | IC50 [2] | bioavailability [3] | half-life [4]
O=C(O)CCN1CCN(C(=O)N2CCC3(CC2)CCN(c2ccncc2)C3)CC1 | 0.087 µM | 3.2 µM |  | 
CC(CC(=O)O)N1CCC(C(=O)N2CCC3(CC2)CCN(c2ccncc2)C3)CC1 (stereo unspecified) | 0.225 µM | 3.3 µM |  | 
O=C(O)CCC(=O)N1CCN(C(=O)N2CCC3(CC2)CCN(c2ccncc2)C3)CC1 |  | 24.1 µM |  | 
O=C(N[C@@H](CCC(=O)N1CCC2(CC1)CCN(c1ccncc1)C2)C(=O)O)OCc1ccccc1 | 0.025 µM | 4.1 µM |  | 
O=C(O)COCC1CCN(C(=O)N2CCC3(CC2)CCN(c2ccncc2)C3)CC1 |  | 2.8 µM |  | 
O=C(O)CCNC(=O)N1CCC2(CC1)CCN(c1ccncc1)C2 |  | 34.6 µM |  | 
O=C(O)CCCNC(=O)N1CCC2(CC1)CCN(c1ccncc1)C2 | > 50 µM | 80 µM |  | 
O=C(O)COc1cccc(C(=O)N2CCC3(CC2)CCN(c2ccncc2)C3)c1 | 0.873 µM | 18.3 µM |  | 
O=C(O)CCCCCCC(=O)N1CCC2(CCN(c3ccncc3)CC2)C1 |  | 18.8 µM |  | 
O=C(O)CCn1ccc2cc(C(=O)N3CCC4(CC3)CCN(c3ccncc3)C4)ccc21 | 1.8 µM | 23.3 µM |  | 
O=C(O)CN1CCC(C(=O)N2CCC3(CC2)CCN(c2ccncc2)C3)CC1 | 0.32 µM | 9.5 µM |  | 
O=C(O)CCN1CCN(C(=O)N2CCC3(CCN(c4ccncc4)CC3)C2)CC1=O | 0.238 µM | 8.34 µM |  | 
CN(CC(=O)O)C1CCN(C(=O)N2CCC3(CC2)CCN(c2ccncc2)C3)CC1 | 1.2 µM | 12.4 µM |  | 
O=C(O)CCCCCNC(=O)N1CCC2(CC1)CCN(c1ccncc1)C2 | > 50 µM | 74 µM |  | 
O=C(O)CCN1CCCN(C(=O)N2CCC3(CC2)CCN(c2ccncc2)C3)CC1 | 0.254 µM | 3.7 µM |  | 
CCCCOC(=O)N[C@@H](CCC(=O)N1CCC2(CC1)CCN(c1ccncc1)C2)C(=O)O |  | 4 µM |  | 
O=C(O)CCCCC(=O)N1CCC2(CCN(c3ccncc3)CC2)C1 | > 50 µM | 80 µM |  | 
O=C(O)CCCCNC(=O)N1CCC2(CC1)CCN(c1ccncc1)C2 | 11.9 µM | 10.6 µM |  | 
O=C(O)COc1ccc(C(=O)N2CCC3(CC2)CCN(c2ccncc2)C3)cc1 |  | 11.3 µM |  | 
O=C(O)CC(=O)NC1CCN(C(=O)N2CCC3(CC2)CCN(c2ccncc2)C3)C1 (stereo unspecified) |  | 5.9 µM |  | 
O=C(O)C1CCN(C(=O)N2CCC3(CC2)CCN(c2ccncc2)C3)CC1 | 4.2 µM | 55 µM |  | 
O=C(O)CC(=O)N1CCC(C(=O)N2CCC3(CCN(c4ccncc4)CC3)C2)CC1 |  | 1.58 µM |  | 
O=C(O)CN1CCN(C(=O)N2CCC3(CC2)CCN(c2ccncc2)C3)CC1 |  | 8.9 µM |  | 
O=C(O)COC1CCN(C(=O)N2CCC3(CC2)CCN(c2ccncc2)C3)CC1 |  | 3.8 µM |  | 

Stronger by IC50 [2], values ahead:

IC50 [1] | IC50 [2] | bioavailability [3] | half-life [4] | SMILES
0.136 µM | 0.68 µM |  |  | O=C(O)CC(=O)N1CCN(C(=O)N2CCC3(CC2)CCN(c2ccncc2)C3)CC1
 | 0.7 µM |  |  | O=C(O)CC(=O)N1CCCN(C(=O)N2CCC3(CC2)CCN(c2ccncc2)C3)CC1
 | 0.95 µM |  |  | O=C(O)Cn1ccc2cc(C(=O)N3CCC4(CC3)CCN(c3ccncc3)C4)ccc21
0.002 µM | 0.27 µM | 12% | 22.8 min | O=C(O)[C@H](CCC(=O)N1CCC2(CC1)CCN(c1ccncc1)C2)NS(=O)(=O)c1cnoc1
0.153 µM | 1.04 µM |  |  | O=C(O)COC1CCN(C(=O)N2CCC3(CCN(c4ccncc4)CC3)C2)CC1
0.043 µM | 1.3 µM |  |  | O=C(O)CCCCCC(=O)N1CCC2(CCN(c3ccncc3)CC2)C1
 | 1 µM |  |  | O=C(O)CCN1CCC(C(=O)N2CCC3(CC2)CCN(c2ccncc2)C3)CC1
0.004 µM | 0.26 µM | 10% | 58.8 min | O=C(O)CC(=O)N1CCC(C(=O)N2CCC3(CC2)CCN(c2ccncc2)C3)CC1
0.115 µM | 1.2 µM |  |  | O=C(O)CC1CCN(C(=O)N2CCC3(CC2)CCN(c2ccncc2)C3)CC1
0.025 µM | 1.18 µM |  |  | O=C(O)CN1CCN(C(=O)N2CCC3(CCN(c4ccncc4)CC3)C2)CC1=O
0.09 µM | 1.1 µM |  |  | O=C(O)CS(=O)(=O)N1CCC(C(=O)N2CCC3(CC2)CCN(c2ccncc2)C3)CC1
